Experimental data reported in patent US9949972B2, “Combinations of histone deacetylase inhibitors and immunomodulatory drugs” (Acetylon Pharmaceuticals, Inc., priority 2013, dated 2018).

Key:
[1] = tested on: Mino mantle cell lymphoma cells; test: Cell cycle inhibition, Mino cells; type: cell-based; conditions: 4 days, Compound A or B 2 μM, Lenalidomide 2 μM, Pomalidomide 1 μM
[2] = tested on: Jeko1 mantle cell lymphoma cells; test: Cell cycle inhibition, Jeko1 cells; type: cell-based; conditions: 4 days, Compound B 2 μM, Lenalidomide 2 μM, Pomalidomide 1 μM
HDAC6 = target: T1, HDAC6 (Homo sapiens, UniProt Q9UBN7); test: HDAC enzyme assays (selectivity); type: biochemical; conditions: HDAC6 vs class I HDACs
T1 construct: purchased BPS Biosciences
T1 sequence (Q9UBN7 1-1215): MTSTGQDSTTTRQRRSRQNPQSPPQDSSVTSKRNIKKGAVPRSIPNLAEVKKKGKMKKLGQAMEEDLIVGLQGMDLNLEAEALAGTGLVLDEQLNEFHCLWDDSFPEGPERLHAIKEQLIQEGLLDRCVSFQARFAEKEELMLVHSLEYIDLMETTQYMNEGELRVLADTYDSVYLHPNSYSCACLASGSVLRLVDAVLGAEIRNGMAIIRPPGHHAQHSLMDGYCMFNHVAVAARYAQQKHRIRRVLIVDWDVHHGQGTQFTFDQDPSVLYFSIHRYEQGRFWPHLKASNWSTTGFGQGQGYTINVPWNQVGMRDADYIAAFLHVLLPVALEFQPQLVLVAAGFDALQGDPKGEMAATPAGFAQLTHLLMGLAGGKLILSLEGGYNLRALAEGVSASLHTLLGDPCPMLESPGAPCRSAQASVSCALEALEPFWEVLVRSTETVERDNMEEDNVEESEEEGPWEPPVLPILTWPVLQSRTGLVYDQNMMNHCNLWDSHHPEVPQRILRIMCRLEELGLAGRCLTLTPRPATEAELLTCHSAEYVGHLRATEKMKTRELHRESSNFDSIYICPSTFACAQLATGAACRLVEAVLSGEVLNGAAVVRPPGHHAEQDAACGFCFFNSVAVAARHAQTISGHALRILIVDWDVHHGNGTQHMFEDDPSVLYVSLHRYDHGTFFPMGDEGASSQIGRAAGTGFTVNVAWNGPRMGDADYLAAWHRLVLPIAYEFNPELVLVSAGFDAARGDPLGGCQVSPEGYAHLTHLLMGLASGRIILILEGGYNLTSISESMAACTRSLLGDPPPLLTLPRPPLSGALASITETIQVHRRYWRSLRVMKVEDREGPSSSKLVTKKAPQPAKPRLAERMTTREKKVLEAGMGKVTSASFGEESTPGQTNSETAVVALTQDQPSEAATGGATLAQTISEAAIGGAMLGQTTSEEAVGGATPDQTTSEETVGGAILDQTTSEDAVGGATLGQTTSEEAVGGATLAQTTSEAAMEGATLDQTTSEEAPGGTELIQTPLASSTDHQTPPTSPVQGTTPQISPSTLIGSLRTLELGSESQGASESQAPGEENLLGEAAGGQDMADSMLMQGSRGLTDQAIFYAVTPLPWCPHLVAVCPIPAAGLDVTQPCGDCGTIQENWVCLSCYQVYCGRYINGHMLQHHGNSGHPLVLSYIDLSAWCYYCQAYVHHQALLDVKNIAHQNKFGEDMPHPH
Experimental: Compounds for testing were diluted in DMSO to 50 fold the final concentration and a ten point three fold dilution series was made. The compounds were diluted in assay buffer (50 mM HEPES, pH 7.4, 100 mM KCl, 0.001% Tween-20, 0.05% BSA, 20 μM TCEP) to 6 fold their final concentration. The HDAC enzymes (purchased from BPS Biosciences) were diluted to 1.5 fold their final concentration in assay buffer. The tripeptide substrate and trypsin at 0.05 μM final concentration were diluted in assay buffer at 6 fold their final concentration. The final enzyme concentrations used in these assays were 3.3 ng/ml (HDAC1), 0.2 ng/ml (HDAC2), 0.08 ng/ml (HDAC3) and 2 ng/ml (HDAC6). […] Five μl of compound and 20 μl of enzyme were added to wells of a black, opaque 384 well plate in duplicate. Enzyme and compound were incubated together at room temperature for 10 minutes. Five μl of substrate was added to each well, the plate was shaken for 60 seconds and placed into a Victor 2 microtiter plate reader. The development of fluorescence was monitored for 60 min and the linear rate of the reaction was calculated. The IC50 was determined using Graph Pad Prism by a four parameter curve fit.

O=C(CCCCCCNC(=O)c1cnc(N(c2ccccc2)c2ccccc2Cl)nc1)NO [Compound B, 2-((2-chlorophenyl)(phenyl)amino)-N-(7-(hydroxyamino)-7-oxoheptyl)pyrimidine-5-carboxamide]
cell cycle progression [1]: decreased cell cycle progression | cell cycle progression [2]: decreased cell cycle progression

O=C(NO)c1cnc(NC2(c3cccc(F)c3)CCCCC2)nc1 [Compound C, 2-((1-(3-fluorophenyl)cyclohexyl)amino)-N-hydroxypyrimidine-5-carboxamide]
selectivity for HDAC6 over class I HDAC's (HDAC6): more than 300 fold

O=C(CCCCCCNC(=O)c1cnc(N(c2ccccc2)c2ccccc2)nc1)NO [Compound A, 2-(diphenylamino)-N-(7-(hydroxyamino)-7-oxoheptyl)pyrimidine-5-carboxamide]
selectivity for HDAC6 over class I HDAC's (HDAC6): approximately 11 fold | cell cycle progression [1]: decreased cell cycle progression
